Measurements reported in ChEMBL document CHEMBL3352756, “Synthesis and evaluation of pyrazolines bearing benzothiazole as anti-inflammatory agents” (Bioorg Med Chem, 2014).

Experiments:
RAW264.7 [1] = test: Antiinflammatory activity in mouse RAW264.7 cells assessed as inhibition of LPS-induced TNF-alpha release at 20 uM after 24 hrs by ELISA; assay type: functional; conditions: RAW264.7, 24 h
[2] = (§1) Cytotoxicity against mouse RAW264.7 cells assessed as cell viability at 20 uM after 24 hrs by MTT assay in presence of LPS; assay type: cell-based; conditions: RAW264.7 cells, read-out: Activity
Rattus norvegicus [3] = test: Antiinflammatory activity in albino Wistar rat paw edema model assessed as inhibition of carrageenan-induced paw edema at 20 mg/kg, po administered 1 hr prior to carrageenan challenge measured after 3 to 5 hrs by plethysmometry relative to vehicle-treated control; assay type: functional
RAW264.7 [4] = test: as §1; assay type: cell-based; conditions: raw264.7, 24 h, 20 µM
Rattus norvegicus [5] = test: Toxicity in rat assessed as damage to epithelial layer of stomach at 60 mg/kg, po after 5 hrs; assay type: organism-based; set-up: dose 60 mg/kg, route oral; conditions: in vivo
Rattus norvegicus [6] = test: Toxicity in rat assessed as ulceration at 60 mg/kg, po after 5 hrs; assay type: organism-based; set-up: dose 60 mg/kg, route oral; conditions: in vivo

| Compound | inhibition at 20 µM (RAW264.7 [1]) | viability at 24 h, 20 µM [2] | inhibition in vivo at 20 mg/kg (Rattus norvegicus [3]) | Activity (RAW264.7 [4]) | Activity (Rattus norvegicus [5]) | Activity (Rattus norvegicus [6]) |
| --- | --- | --- | --- | --- | --- | --- |
| NS(=O)(=O)c1ccc2nc(N3N=C(c4ccc(Cl)cc4)CC3c3ccc(F)cc3)sc2c1 (stereo unspecified) | 38% | 86% |  |  |  |  |
| Cc1ccc(C2CC(c3ccc(Cl)cc3)=NN2c2nc3ccc(S(N)(=O)=O)cc3s2)cc1 (stereo unspecified) | 38% |  |  |  |  |  |
| COc1ccc(C2CC(c3ccc(Cl)cc3)=NN2c2nc3ccc(S(N)(=O)=O)cc3s2)cc1 (stereo unspecified) | 38% |  | 67.7% | Toxic |  |  |
| NS(=O)(=O)c1ccc2nc(N3N=C(c4ccc(Br)cc4)CC3c3ccc(F)cc3)sc2c1 (stereo unspecified) | 38% | 86% |  |  |  |  |
| NS(=O)(=O)c1ccc2nc(N3N=C(c4ccc(Cl)cc4)CC3c3ccccc3)sc2c1 (stereo unspecified) | 72.2% | > 90% | 68.3% |  | Non-toxic | Non-toxic |
| NS(=O)(=O)c1ccc2nc(N3N=C(c4ccc(Cl)cc4)CC3c3ccccc3Cl)sc2c1 (stereo unspecified) | 38% | > 90% |  |  | Non-toxic | Non-toxic |
| NS(=O)(=O)c1ccc2nc(N3N=C(c4ccc(Br)cc4)CC3c3ccc(Cl)cc3)sc2c1 (stereo unspecified) | 71.7% | 90% |  |  | Non-toxic | Non-toxic |
| COc1ccc(C2CC(c3ccc(Br)cc3)=NN2c2nc3ccc(S(N)(=O)=O)cc3s2)cc1 (stereo unspecified) | 38% | 86% |  |  |  |  |
| Cc1ccc(-c2cc(C(F)(F)F)nn2-c2ccc(S(N)(=O)=O)cc2)cc1 [CELECOXIB] | 53.4% |  | 67% |  | Non-toxic | Non-toxic |
| NS(=O)(=O)c1ccc2nc(N3N=C(c4ccc(Cl)cc4)CC3c3ccc(Cl)cc3)sc2c1 (stereo unspecified) | 38% | > 90% |  |  | Non-toxic | Non-toxic |
